Source: publication PMC9697519, “New Theonellapeptolides from Indonesian Marine Sponge Theonella swinhoei as Anti-Austerity Agents” (Marine Drugs, 2022)
Where a SMILES comes first, the peptide text is derived from it. Bridges are numbered along the chain shown (N, C = ends). [ ]: non-standard residue; d: D form. The star is where a group is joined. dNMeaIle = CC[C@H](C)[C@@H](NC)C(=O)O; d(aIle) = CC[C@H](C)[C@@H](N)C(=O)O; NMeI = CC[C@H](C)[C@H](NC)C(=O)O; dNMeL = CN[C@H](CC(C)C)C(=O)O; NMeV = CN[C@H](C(=O)O)C(C)C; Methoxyacetyl = COCC(=O)*; βAla = NCCC(=O)O

Experiments:
[1] = tested on: Bacillus cereus NBRC 15305; conditions: NBRC 15305, 22 h
Experimental: (§1) Previously, three theonellapeptolide members capped with a unique acyl group at their N-termini such as methylsulfinylacetyl, methylsulfanylacetyl, and acetyl were isolated by Tsuda et al. from Okinawan marine sponge Theonella sp.. Furthermore, the antibacterial activity of these variants was evaluated against four bacterial and six fungal strains. […] To the best of our knowledge, there is no report on the antibacterial activity of theonellapeptolides with methoxyacetyl group. This encouraged us to investigate the antibacterial activity of 1–6 against the Gram-negative bacterium Escherichia coli JW5503 and the Gram-positive bacteria Bacillus cereus NBRC 15305 and Kocuria rhizophila NBRC 12708.
(§2) After incubation for 22 h (30 °C), the obtained optical density was recorded using Tecan infinite® M200 plate reader at 600 nm to determine percent growth inhibition.

[2] = tested on: Escherichia coli JW5503; conditions: JW5503, 22 h
Experimental: as §1, §2

[3] = tested on: Kocuria rhizophila NBRC 12708; conditions: NBRC 12708, 22 h
Experimental: as §1, §2

[4] = tested on: MIA PaCa-2 cells; test: Colony formation assay; format: cell-based, human; conditions: then fresh DMEM 10 days, 500 cells/well, three replicates
Experimental: Figure 6 (A) Morphological changes of MIA PaCa-2 cells induced by 4 in a nutrient-deprived medium (NDM). MIA PaCa-2 tumor cells were treated with 4 at the indicated concentrations in NDM in a 24-well plate and incubated for 24 h. The cells were stained with ethidium bromide (EB) and acridine orange (AO), and photographed in the fluorescence (red and green) under phase contrast modes using a Nikon sCMOS camera oxford instrument, Hamamatsu Photonics/Ti-E. (B) Structure of bioactive compound 4. (C) Effect of 4 on colony formation by MIA PaCa-2 cells in DMEM. (a) Graph showing the average values of the area occupied by MIA PaCa-2 cell colonies (three replicates). **** p < 0.0001 compared to the untreated control group. (b) Representative wells showing colonies of MIA PaCa-2 cells.
Pancreatic cancer cells have a great ability to migrate to surrounding tissues, growing and forming new colonies after metastasis in distant organs with sufficient nutrition. These processes are responsible for the majority of deaths from pancreatic cancer. The phenomenon is called “colonization”, and occurs during cancer metastasis. Migrating pancreatic cancer cells are likely to form small colonies (micrometastases), which then become large tumors. The discovery of potential inhibitors of the colony-forming ability of pancreatic cancer represents a promising approach to prevent pancreatic tumor metastasis. […] Therefore, theonellapeptolides isolated from marine origin were studied for their ability to inhibit MIA PaCa-2 colony formation. MIA PaCa-2 cells (500 cells/well) were placed in a 24-well plate and treated with 4 at 12.5, 25, and 50 μM (non-cytotoxic concentrations) in DMEM for 24 h.
Subsequently, the medium was replaced with fresh DMEM, and the cells were allowed to grow as colonies for 10 days in a humified CO2 incubator at 37 °C. […]
Colony Formation inhibitory effect of 4 at different concentrations against MIA PaCa-2 cells was determined as described previously.

CC[C@H](C)[C@H]1C(=O)NCCC(=O)N[C@H]([C@@H](C)CC)C(=O)N(C)[C@@H](C(C)C)C(=O)N[C@@H](C)C(=O)NCCC(=O)N[C@H](CC(C)C)C(=O)N(C)[C@H]([C@@H](C)CC)C(=O)O[C@H](C)[C@H](NC(=O)[C@@H](CC(C)C)N(C)C(=O)[C@@H](NC(=O)COC)C(C)C)C(=O)NCCC(=O)N[C@H](CC(C)C)C(=O)N1C [Compound 4, theonellapeptolide IId] (Methoxyacetyl-V[dNMeL]T[βAla][dL][NMeI][βAla][d(aIle)][NMeV]A[βAla][dL][dNMeaIle]; ester 3-C)
MIC, BC [1]: > 66 µM | MIC, EC [2]: > 66 µM | MIC, KR [3]: > 66 µM | total well area occupied by colonies ([4]; 12.5 μM in DMEM for 24 h): 100% | colony formation ([4]; 25 μM in DMEM for 24 h): total inhibition of colony formation | colony formation ([4]; 50 μM in DMEM for 24 h): total inhibition of colony formation
